Experimental data from PubChem BioAssay (NCI).
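Exposure lasted 48 hours, with cells grown in 96-well plates and compounds tested at five concentrations. At the TGI there is no net growth.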

What was measured:
Test in all cases: NCI tumour cell line growth inhibition, 48 h
[1] = system: ACHN renal
[2] = system: HS 578T breast
[3] = system: LOX IMVI melanoma
[4] = system: PC-3 prostate
[5] = system: A498 renal
[6] = system: SF-268 CNS
[7] = system: KM12 colon
[8] = system: EKVX NSCLC
[9] = system: NCI-H460 lung
[10] = system: CAKI-1 renal
[11] = system: MCF7 breast
[12] = system: RPMI-8226 leukemia
[13] = system: CCRF-CEM leukemia
[14] = system: COLO 205 colon
[15] = system: UACC-257 melanoma
[16] = system: OVCAR-4 ovarian
[17] = system: K-562 leukemia
[18] = system: SK-MEL-5 melanoma
[19] = system: M14 melanoma
[20] = system: OVCAR-8 ovarian
[21] = system: MDA-MB-231 breast
[22] = system: SR leukemia
[23] = system: SK-OV-3 ovarian
[24] = system: HCC-2998 colon
[25] = system: UO-31 renal
[26] = system: OVCAR-5 ovarian
[27] = system: SK-MEL-28 melanoma
[28] = system: DU-145 prostate
[29] = system: MALME-3M melanoma
[30] = system: NCI/ADR-RES ovarian
[31] = system: TK-10 renal
[32] = system: SNB-75 CNS
[33] = system: SNB-19 CNS
[34] = system: HOP-92 NSCLC
[35] = system: BT-549 breast
[36] = system: RXF 393 renal
[37] = system: SK-MEL-2 melanoma
[38] = system: A549 NSCLC
[39] = system: SF-539 CNS
[40] = system: HL-60(TB) leukemia
[41] = system: MOLT-4 leukemia
[42] = system: IGROV1 ovarian
[43] = system: NCI-H522 lung
[44] = system: MDA-N
[45] = system: HCT-116 colon
[46] = system: HT29 colon
[47] = system: HOP-62 NSCLC
[48] = system: SN12C renal
[49] = system: HCT-15 colon
[50] = system: T-47D breast
[51] = system: 786-0 renal
[52] = system: NCI-H226 lung
[53] = system: SW-620 colon
[54] = system: UACC-62 melanoma
[55] = system: OVCAR-3 ovarian
[56] = system: SF-295 CNS
[57] = system: U251 CNS
[58] = system: MDA-MB-435
[59] = system: NCI-H23 lung
[60] = system: SNB-78 CNS
[61] = system: KM20L2 colon
[62] = system: XF 498 CNS
[63] = system: DLD-1 colon
[64] = system: HOP-18 NSCLC
[65] = system: M19-MEL melanoma
[66] = system: DMS 114 small cell lung
[67] = system: LXFL 529 NSCLC
[68] = system: DMS 273 small cell lung

CC1(C)CC(=O)C2=C(C1)C(c1ccccc1Cl)C1C(=O)CC(C)(C)CC1(O)O2 (centres undefined)
TGI [1]: > 100 µM | TGI [2]: > 100 µM | TGI [3]: > 100 µM | TGI [4]: > 100 µM | TGI [5]: > 100 µM | TGI [6]: > 100 µM | TGI [7]: > 100 µM | TGI [8]: > 100 µM | TGI [9]: > 100 µM | TGI [10]: > 100 µM | TGI [11]: > 100 µM | TGI [12]: > 100 µM | TGI [13]: > 94.8 µM | TGI [14]: > 31.6 µM | TGI [15]: > 95.9 µM | TGI [16]: > 100 µM | TGI [17]: > 100 µM | TGI [18]: > 100 µM | TGI [19]: > 100 µM | TGI [20]: > 100 µM | TGI [21]: > 100 µM | TGI [22]: > 100 µM | TGI [23]: > 100 µM | TGI [24]: > 100 µM | TGI [25]: > 100 µM | TGI [26]: > 100 µM | TGI [27]: > 100 µM | TGI [28]: > 100 µM | TGI [29]: > 100 µM | TGI [30]: > 100 µM | TGI [31]: > 100 µM | TGI [32]: > 100 µM | TGI [33]: > 100 µM | TGI [34]: > 100 µM | TGI [35]: > 100 µM | TGI [36]: > 100 µM | TGI [37]: > 100 µM | TGI [38]: > 100 µM | TGI [39]: > 100 µM | TGI [40]: > 43.7 µM | TGI [41]: > 100 µM | TGI [42]: > 100 µM | TGI [43]: > 100 µM | TGI [44]: > 100 µM | TGI [45]: > 100 µM | TGI [46]: > 100 µM | TGI [47]: > 100 µM | TGI [48]: > 100 µM | TGI [49]: > 100 µM | TGI [50]: > 100 µM | TGI [51]: > 100 µM | TGI [52]: > 100 µM | TGI [53]: > 100 µM | TGI [54]: > 100 µM | TGI [55]: > 100 µM | TGI [56]: > 31.6 µM | TGI [57]: > 100 µM | TGI [58]: > 95.8 µM | TGI [59]: > 100 µM

CC1=N/C(=C\c2ccc(/C=C3/N=C(C)OC3=O)cc2)C(=O)O1
TGI [1]: > 100 µM | TGI [60]: > 100 µM | TGI [3]: > 100 µM | TGI [61]: > 100 µM | TGI [5]: > 100 µM | TGI [6]: > 100 µM | TGI [7]: > 100 µM | TGI [10]: > 100 µM | TGI [12]: > 100 µM | TGI [62]: > 100 µM | TGI [13]: > 100 µM | TGI [14]: > 100 µM | TGI [15]: > 100 µM | TGI [16]: > 100 µM | TGI [17]: > 100 µM | TGI [18]: > 100 µM | TGI [63]: > 100 µM | TGI [19]: > 100 µM | TGI [20]: > 100 µM | TGI [23]: > 100 µM | TGI [24]: > 100 µM | TGI [25]: > 100 µM | TGI [27]: > 100 µM | TGI [64]: > 100 µM | TGI [29]: > 100 µM | TGI [65]: > 100 µM | TGI [66]: > 100 µM | TGI [31]: > 100 µM | TGI [32]: > 100 µM | TGI [33]: > 100 µM | TGI [34]: > 100 µM | TGI [36]: > 100 µM | TGI [37]: > 100 µM | TGI [67]: > 100 µM | TGI [38]: > 100 µM | TGI [39]: > 100 µM | TGI [42]: > 100 µM | TGI [43]: > 100 µM | TGI [45]: > 100 µM | TGI [46]: > 100 µM | TGI [47]: > 100 µM | TGI [48]: > 100 µM | TGI [49]: > 100 µM | TGI [51]: > 100 µM | TGI [53]: > 100 µM | TGI [68]: > 100 µM | TGI [54]: > 100 µM | TGI [55]: > 100 µM | TGI [57]: > 100 µM | TGI [59]: > 100 µM
